Measured values reported in ChEMBL document CHEMBL4392887, “17- nor-Cephalotane-Type Diterpenoids from Cephalotaxus fortunei” (J Nat Prod, 2019).
Structures can show the parent of a compound that is named as a salt. Active and inactive are the calls of the source. The calls are words filed in the database; no cut-off is given here.

Tests used:
HL-60 [1] = test: Cytotoxicity in human HL60 cells assessed as inhibition of cell viability incubated for 72 hrs by CCK-8 assay; assay type: functional, cell-based; details: for IC50: HL-60, 72 h
A549 [2] = test: Cytotoxicity in human A549 cells assessed as inhibition of cell viability incubated for 72 hrs by CCK-8 assay; assay type: functional, cell-based; details: for IC50: A549, 72 h
A549 [3] = test: Cytotoxicity in human A549 cells assessed as inhibition of cell viability at 50 uM incubated for 72 hrs by CCK-8 assay; assay type: functional; details: A549, 72 h
HL-60 [4] = test: Cytotoxicity in human HL60 cells assessed as inhibition of cell viability at 50 uM incubated for 72 hrs by CCK-8 assay; assay type: functional; details: HL-60, 72 h

SMILES | IC50 (HL-60 [1]) | IC50 (A549 [2]) | inhibition at 50 µM (A549 [3]) | inhibition at 50 µM (HL-60 [4]) | further results
Cc1cc(=O)cc2c3c1C[C@@H]1[C@@H]4OC(=O)[C@](C[C@H]2O)(C(C)C4O)[C@H]31 (stereo not given in full) | 38.4 µM | 25.4 µM | – | – | –
CO[C@@]12c3c4cc(=O)cc(C)c3C[C@@H]1[C@H]1CC(C)[C@@]2(CC4)C(=O)O1 (stereo not given in full) | – | – | – | – | inhibition (HL-60 [1]): inactive; inhibition (A549 [2]): inactive
CC1=C[C@@H](O)[C@H](O)[C@@]2(O)CC[C@]34C(=O)O[C@@H]5C(O[C@H]6C1=C2[C@@H]3[C@@H]56)C4C (stereo not given in full) | – | – | < 50% | < 50% | –
CC1C[C@H]2OC(=O)[C@]13CC[C@@H]1C[C@H](O)C[C@H](C)C4=C1[C@@H]3[C@@H]2C4=O (stereo not given in full) | – | – | < 50% | < 50% | –
Cc1cc(=O)cc2c3c1C[C@H]1[C@@H]3[C@]3(C[C@H]2O)C(=O)O[C@@H]1CC3C (stereo not given in full) | > 50 µM | 22 µM | – | – | –
CC1C(O)[C@H]2OC(=O)[C@]13CC[C@]14C[C@@H](O)[C@H](O1)[C@@](C)(O)C1=C4[C@@H]3[C@@H]2C1 (stereo not given in full) | – | – | < 50% | < 50% | –
Cc1cc(=O)cc2c3c1C[C@]1(O)[C@H]4CC(C)[C@@](CC2)(C(=O)O4)[C@]31O (stereo not given in full) | 6.8 µM | 4.5 µM | – | – | –
Cc1cc(=O)cc2c3c1C[C@H]1[C@@H]3[C@]3(C=C2)C(=O)O[C@@H]1CC3C (stereo not given in full) | 9.8 µM | 1 µM | – | – | –
Cc1cc(=O)cc2c3c1[C@@H](O)[C@H]1[C@@H]3[C@]3(CC2)C(=O)O[C@@H]1CC3C (stereo not given in full) | > 50 µM | 10.3 µM | – | – | –
Cc1cc(=O)cc2c3c1C[C@@H]1[C@H]4CC(C)[C@@](CC2)(C(=O)O4)[C@]31O (stereo not given in full) | – | – | – | – | inhibition (HL-60 [1]): inactive; inhibition (A549 [2]): Active
COc1cccc2c1C(=O)c1c(O)c3c(c(O)c1C2=O)C[C@@](O)(C(=O)CO)C[C@@H]3O[C@H]1C[C@H](N)[C@H](O)[C@H](C)O1 [DOXORUBICIN HYDROCHLORIDE] | 0.075 µM | 0.44 µM | – | – | –
Cc1cc(=O)cc2c3c1[C@H](O)[C@H]1[C@@H]3[C@]3(CC2)C(=O)O[C@@H]1CC3C (stereo not given in full) | 3.5 µM | 2.4 µM | – | – | –
CC1C[C@H]2OC(=O)[C@]13CC[C@@H]1C[C@@H](O)C[C@H](C)C4=C1[C@@H]3[C@@H]2C4=O (stereo not given in full) | – | – | < 50% | < 50% | –
CC1C(O)[C@H]2OC(=O)[C@]13CC[C@@H]1C[C@@H](O)C[C@H](C)C4=C1[C@]3(O)[C@@H]2C4=O (stereo not given in full) | – | – | < 50% | < 50% | –
Cc1cc(=O)cc2c3c1C[C@@H]1[C@H]4CC(C)[C@@](C=C2)(C(=O)O4)[C@]31O (stereo not given in full) | 10 to 20 µM | 5.7 µM | – | – | –
CC1C[C@H]2OC(=O)[C@]13CC[C@@H]1CC(=O)C[C@H](C)C4=C1[C@]3(O)[C@@H]2C4=O (stereo not given in full) | – | – | < 50% | < 50% | –
CC1C[C@H]2OC(=O)[C@]13CC[C@@H]1CC(=O)C[C@H](C)C4=C1[C@@H]3[C@@H]2C4=O (stereo not given in full) | – | – | < 50% | < 50% | –
Cc1cc(=O)cc2c3c1[C@H](O)[C@@H]1[C@@H]4OC(=O)[C@](CC2)(C(C)C4O)[C@H]31 (stereo not given in full) | 2.2 µM | 2.4 µM | – | – | –
Cc1cc(=O)cc2c3c1[C@@H](O)[C@@H]1[C@H]4CC(C)[C@@](C=C2)(C(=O)O4)[C@]31O (stereo not given in full) | – | – | – | – | inhibition (HL-60 [1]): inactive; inhibition (A549 [2]): inactive
Cc1cc(=O)cc2c3c1[C@@H]1OC4C(C)[C@@]5(C[C@H]2O)C(=O)O[C@H]4[C@]1(O)[C@@H]35 (stereo not given in full) | 17.2 µM | 11.5 µM | – | – | –
